According to patent US9198886B2, “Use of 2,5-dihydroxybenzene for the treatment of ocular diseases” (priority 2006, dated 2015):

Experiments:
infantile hemangioma = test: Topical cream in a child with infantile hemangioma; type: in vivo, human; conditions: cream 2.5%, topical twice a day, 1, 2 and 3 months, one child
From the text: Photographs of a child showing the effects of the topical treatment with a cream comprising 2,5-dihydroxybenzenesulfonic (DHBS) (2.5%) in a baby suffering infantile hemangioma.
The cream comprising 2,5-dihydroxybenzene sulfonic (2.5%) was topically applied twice a day for 3 months on the face of a child suffering from infantile hemangioma.

endometriotic lesions = test: Rat model of endometriosis, histology of autologous implant; type: in vivo, Sprague-Dawley rats; conditions: 200 mg/kg/day i.p., two weeks
From the text: In these rats, the epithelial layer (a) and the stroma (b) are clearly observed in the endometrium, while longitudinal (c) and circular (d) normal layers of smooth muscle cells are observed in the myometrium adjacent to the peritoneal tissue (e). […] The neovascularization observed in the uterine tissue implanted in control rats (shown with arrows in A) is not present in rats treated with 2,5-dihydroxybenzenesulfonic (DHBS) (C). • D) Magnification of the area marked with a box in C.
Sprague-Dawley rats were anesthetized as described (Fernández-Tornero C et al. J Biol Chem, 2003). Endometriotic lesions were induced using a known rat model of endometriosis (Vernon M W and Wilson E A. Fertil Steril, 1985). In summary, 2 mm fragments of the cervix were autologously implanted between branches in the mesenteric vascular tree. The rats were treated or not treated (control) daily during two weeks after the surgery with 2,5-dihydroxybenzene sulfonic acid (DHBS) (200 mg/kg; i.p.). Then, the rats were sacrificed and the endometrial ectopic tissue was removed to make its histological examination. […] This example illustrates the therapeutic activity of 2,5-dihydroxybenzene sulfonate (DHBS) in the treatment of endometriosis.

skeletal muscle lesions = test: Oral treatment of patients with skeletal muscle and tendon lesions (MRI, function); type: in vivo, human
Method: The capacity of a 2,5-dihydroxybenzene derivative, the 2,5-dihydroxybenzene sulfonic acid (DHBS) to effectively treat skeletal muscle lesions is shown herein. The efficacy is evident, not only in the images of conventional diagnosis that show the recovery of the muscular damage, but also there is a clear functional recovery of the affected limb.
The first patient's left quadriceps was broken by practicing sports. […] At that moment, the patient starts a daily oral treatment with 500 mg of 2,5-dihydroxybenzene sulfonic acid (DHBS) for two weeks. […] An observation that may be applied to the other cases that support this example.
Other patient has an hematoma and muscular breaking of the brachial biceps, as shown in the magnetic resonance image (MRI) of FIG. 12A. The hematoma can be appreciated externally (FIG. 13A) and the lesion, produced by professional practice (dancing) the day before the consultation, limits the elbow flexion (FIG. 13B) and extension (FIG. 13C).

Leishmania major = Leishmania major infection of the mouse paw pad; type: in vivo, BALB/c female mice
From the text: This model is based in the massive inoculation of Leishmania promatigotes in the mouse paw pad. Under these conditions, the parasite induces a progressive inflammation correlated with the multiplication of parasites at the site of inoculation. BALB/c strain female mice that developed severe and uncontrolled injuries were used (Foote S J, Handman E. Brief Funct Genomic Proteomic, 2005). This model has been used in pharmacology to monitor the therapeutic capacity of new leishmanicide compounds and the preventive capacity of potential vaccines against leishmaniasis ((Nelson K G et al. Antimicrob Agents Chemother. 2006).
The animals were inoculated with 5×10^6 of L. major promastigotes (strain Hervás) in 50 μL of PBS into the plantar pad of the right back paw. As negative control of the infection, a group of mice inoculated with 50 μL of PBS was used. The sizes of the lesions were measured every 7 days until the animals were sacrificed (week 9) using a Vernier caliper. The thickness of the right back paw (infected) and the left back paw (uninfected) of all the animals was measured at the base of the fifth toe. The progression of the inflammation is represented as the difference in thickness between the infected and the non-infected paws. […]

[1] = molecular target: fibroblast growth factor-1 (FGF-1) (Homo sapiens, UniProt P05230); test: FGF-1 induced mitogenesis in quiescent Balb/c 3T3 fibroblasts; type: cell-based; conditions: potassium salts, except 2-acetoxy-5-hydroxybenzene sulfonate as calcium salt
Method: The evaluated compounds were used in the form of potassium salt, except in the first case in which calcium salt was used. The experiments were carried out as described in Fernández-Tornero C et al. J Biol Chem, 2003.

[2] = patient with brachial biceps breaking, 1500 mg/day p.o., 20 days
[3] = patient with broken left quadriceps, 500 mg/day p.o., two weeks

Sequence of fibroblast growth factor-1 (FGF-1) (P05230 whole entry, species assumed): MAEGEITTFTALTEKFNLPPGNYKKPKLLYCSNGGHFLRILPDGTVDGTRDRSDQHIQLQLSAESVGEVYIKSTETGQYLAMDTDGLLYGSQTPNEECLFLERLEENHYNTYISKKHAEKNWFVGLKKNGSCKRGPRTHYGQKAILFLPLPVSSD

## O=S(=O)(O)c1cc(O)ccc1O [DHBS, 2,5-dihydroxybenzene sulfonic acid]
Infantile hemangioma
  appearance of the hemangioma lesion: substantial recovery of the lesion
Endometriotic lesions
  histology of implanted tissue (hematoxylin-eosin): athrophy of the cervix tissue implanted
  neovascularization of implanted uterine tissue: not present
Skeletal muscle lesions; patient with Achilles tendon breaking, 1500 mg/day p.o., two months
  MRI tendon lesion: marked reduction of said lesion
Skeletal muscle lesions; [2]
  MRI size of lesion and hematoma: markedly reduces the size of the lesion and of the hematoma
  elbow function: recovers the functionality of the elbow flexion and extension
Skeletal muscle lesions; [3]
  MRI of quadriceps lesion and hematoma: the hematoma can no longer be observed
  functional recovery of the leg: able to extend the left leg almost completely
  time to functional recovery and resolution vs conventional treatments (antiinflammatories): shorter period than the one required in the case of conventional treatments
Skeletal muscle lesions; patient with semitendinous muscle lesion, 1500 mg/day p.o., 11 days
  MRI muscular lesion: reduced the muscular lesion
Leishmania major; potassium salt 200 mg/kg i.p. daily for 14 days from third week after infection, effect from the eighth week
  increase of paw thickness (infected vs non-infected paw): significant reduction in the increase of paw thickness
[1]
  FGF-1 induced mitogenesis: Inhibition of the mitogenesis

## CC(=O)Oc1ccc(OC(C)=O)c(S(=O)(=O)[O-])c1.[K+] [DABS, potassium 2,5-diacetoxybenzene sulfonate]
Leishmania major; 200 mg/kg/day i.p. from day 0 to week 9, effect from the third week post-infection
  size of the lesion (paw thickness difference): statistically significant reduction in the size of the lesion
[1]
  FGF-1 induced mitogenesis: Inhibition of FGF-1 induced mitogenesis was observed
